Calls of active or inactive are those of the source. How the calls were made is not given here. Where a SMILES comes first, the peptide text is derived from it. The star is where a group is joined. Boc = CC(C)(C)OC(=O)*
Target: DNA-directed RNA polymerase subunit beta (Escherichia coli (strain K12)) (UniProt P0A8V2)
Test: E. coli RNAP inhibitors, dose response, biochemical, confirmation (AID 826)
Conditions: E. coli RNA polymerase biochemical transcription assay

Sequence of DNA-directed RNA polymerase subunit beta (Escherichia coli (strain K12)) (P0A8V2 whole entry, looked up): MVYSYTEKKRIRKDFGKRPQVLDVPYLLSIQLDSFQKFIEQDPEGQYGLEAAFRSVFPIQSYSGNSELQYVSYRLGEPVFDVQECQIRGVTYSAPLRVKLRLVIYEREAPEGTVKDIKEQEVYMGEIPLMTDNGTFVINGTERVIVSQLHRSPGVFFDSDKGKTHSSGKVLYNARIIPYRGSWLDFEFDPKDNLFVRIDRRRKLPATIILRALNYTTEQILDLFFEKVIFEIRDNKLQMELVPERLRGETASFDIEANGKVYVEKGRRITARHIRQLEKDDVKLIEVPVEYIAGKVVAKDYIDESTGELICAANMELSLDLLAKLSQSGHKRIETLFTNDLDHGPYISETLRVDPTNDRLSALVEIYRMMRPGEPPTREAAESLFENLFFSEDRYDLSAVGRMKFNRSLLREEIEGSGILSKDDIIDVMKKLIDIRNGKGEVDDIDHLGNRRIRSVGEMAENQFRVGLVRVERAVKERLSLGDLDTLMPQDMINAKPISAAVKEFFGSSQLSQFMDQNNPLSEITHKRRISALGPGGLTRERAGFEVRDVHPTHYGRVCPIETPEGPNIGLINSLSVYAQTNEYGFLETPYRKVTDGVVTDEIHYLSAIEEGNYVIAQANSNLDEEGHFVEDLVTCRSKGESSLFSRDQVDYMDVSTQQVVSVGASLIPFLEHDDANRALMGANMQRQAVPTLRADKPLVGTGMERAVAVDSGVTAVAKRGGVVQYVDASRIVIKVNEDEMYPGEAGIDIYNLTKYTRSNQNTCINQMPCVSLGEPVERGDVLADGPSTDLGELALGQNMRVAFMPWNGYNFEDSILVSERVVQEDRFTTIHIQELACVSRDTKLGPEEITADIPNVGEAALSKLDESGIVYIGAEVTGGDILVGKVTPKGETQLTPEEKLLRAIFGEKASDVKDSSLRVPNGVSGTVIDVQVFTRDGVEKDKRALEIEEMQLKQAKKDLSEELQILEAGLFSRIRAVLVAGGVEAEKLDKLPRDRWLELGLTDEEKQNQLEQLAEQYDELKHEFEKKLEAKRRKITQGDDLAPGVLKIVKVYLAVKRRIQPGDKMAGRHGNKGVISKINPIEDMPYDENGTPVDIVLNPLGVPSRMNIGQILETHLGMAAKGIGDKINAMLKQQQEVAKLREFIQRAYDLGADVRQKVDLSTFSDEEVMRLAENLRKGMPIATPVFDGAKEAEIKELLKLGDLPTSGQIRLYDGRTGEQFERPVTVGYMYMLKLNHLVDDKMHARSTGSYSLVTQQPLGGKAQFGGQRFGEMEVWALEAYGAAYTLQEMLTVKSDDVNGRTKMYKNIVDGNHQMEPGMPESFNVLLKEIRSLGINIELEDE

## CCCCn1c(O)c(C(CC)=NCCCN(C)C)c(=O)[nH]c1=O
  IC50: > 50 µM (inactive)

## CCOC(=O)C1=C(c2ccccc2)OC(N)=C(C#N)C1C(C)C (configuration not stated)
  IC50: > 50 µM (inactive)

## CC(C)(C)OC(=O)N1CCCC1C(=O)N1CCCC1C(=O)N1CCCC1C(=O)O (stereo not drawn) (Boc-Pro-Pro-Pro-OH; configuration not given here)
  IC50: > 50 µM (inactive)

## COCCN1C(=O)C(O)=C(C(C)=O)C1c1ccc(OC)c(OC)c1 (configuration not stated)
  IC50: > 50 µM (inactive)

## CC(=O)C1=C(C)Nc2cc(C(F)(F)F)ccc2S1
  IC50: > 50 µM (inactive)

## COc1ccc(C2=NO[C@@H]3C(=O)N(c4c(C)cccc4C)C(=O)[C@H]23)cc1OC
  IC50: > 50 µM (inactive)

## O=C1N(O)C2(C=CCCC2)/C(=N\O)C12CCCCC2 (configuration not stated)
  IC50: > 50 µM (inactive)

Source: PubChem BioAssay AID826 (PCMD, 2007)
